Test results taken from US11793815B2, “Oxindoles and methods of use thereof” (ALIGOS THERAPEUTICS, INC., priority 2020, dated 2023).

Each compound was assayed against T1, human thyroid receptor beta ligand-binding domain (LBD) (Homo sapiens, UniProt P10828) (assay: THR Biochemical Assay (Assay 1): TR-FRET thyroid receptor beta coactivator assay). Settings: GST-tagged thyroid receptor beta LBD 1 nM, fluorescein SRC2-2 coactivator peptide 200 nM, 1 hr at rt, TR-FRET ratio 520:495; read-out: Assay 1 (EC50, THR-beta agonist).
T1 construct: Thyroid receptor beta LBD was added to the plate at a final concentration of 1 nM; purchased Invitrogen
T1 sequence (P10828 217-461 limits assumed): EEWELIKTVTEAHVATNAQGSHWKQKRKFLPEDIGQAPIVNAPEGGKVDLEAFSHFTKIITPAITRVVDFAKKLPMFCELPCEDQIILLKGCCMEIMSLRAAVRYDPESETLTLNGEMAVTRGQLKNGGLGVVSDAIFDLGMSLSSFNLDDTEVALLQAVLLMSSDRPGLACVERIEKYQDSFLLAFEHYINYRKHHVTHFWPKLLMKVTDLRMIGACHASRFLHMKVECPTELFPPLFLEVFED
Text: THR Biochemical Assay (Assay 1)
The TR-FRET thyroid receptor beta coactivator assay was used with slight, optimized modifications of the manufacturer's protocol (Invitrogen). The assay uses a terbium-labeled anti-GST antibody, a glutathione-S-transferase (GST) tagged human thyroid receptor, beta or alpha, ligand-binding domain (LBD), and a fluorescein labeled SRC2-2 coactivator peptide. The antibody interacts with the LBD, where the agonist also binds, resulting in increased affinity for the SRC2-2 coactivator peptide causing energy transfer […] the acceptor fluorophore and a FRET emission shift from 495 to 520 nm. The energy transfer was detected as an increase in the fluorescence emission of the fluorescein acceptor, and a decrease in the fluorescence emission of the terbium donor. The assay was performed in a 384-well black plate in a final volume of 20 μL. Serial dilution of various test agonists was performed in DMSO (1% final DMSO concentration) and added to the test plate. Thyroid receptor beta LBD was added to the plate at a final concentration of 1 nM, followed by the mixture of the fluorescein labeled SRC2-2 coactivator peptide, and the terbium-labeled anti-GST antibody at final concentrations of 200 nM and 2 nM respectively. The assay was incubated for 1 hr at rt protected from light. The TR-FRET was then measured on a Victor multilabel reader (Perkin Elmer) using an excitation wavelength of 340 nm with emission filters of 495 nm and 520 nm. The assay was quantified by expressing a ratio (520:495) of the intensities, and the resulting activation curves; EC50 values were generated using a sigmoidal dose response (variable slope) equation in GraphPad™ Prism 8.0.

EC50 | SMILES
50 to 250 nM | Cc1cc(OCC(=O)O)c(C)c(C)c1Cc1ccc2c(n1)C(C)(C)C(=O)N2 [Compound 1, 4-([3,3-dimethyl-2-oxo-1H-pyrrolo[3,2-b]pyridin-5-yl]methyl)-2,3,5-trimethylphenoxyacetic acid]
50 to 250 nM | Cc1cc(-n2nc(N)c(=O)[nH]c2=O)cc(C)c1Cc1ccc2c(n1)C(C)(C)C(=O)N2 [Compound 12, 6-amino-2-[4-({3,3-dimethyl-2-oxo-1H-pyrrolo[3,2-b]pyridin-5-yl}methyl)-3,5-dimethylphenyl]-4H-1,2,4-triazine-3,5-dione]
< 50 nM | Cc1cc(NC(=O)c2noc(=O)[nH]2)cc(C)c1Oc1ccc2c(c1)C1(CCC1)C(=O)N2 [Compound 25, N-(3,5-dimethyl-4-((2′-oxospiro[cyclobutane-1,3′-indolin]-5′-yl)oxy)phenyl)-5-oxo-4,5-dihydro-1,2,4-oxadiazole-3-carboxamide]
< 50 nM | Cc1cc(-n2nc(C#N)c(=O)[nH]c2=O)cc(C)c1Oc1ccc2c(c1)C1(CC1)C(=O)N2 [Compound 2, 2-(3,5-dimethyl-4-((2′-oxospiro[cyclopropane-1,3′-indolin]-5′-yl)oxy)phenyl)-3,5-dioxo-2,3,4,5-tetrahydro-1,2,4-triazine-6-carbonitrile]
< 50 nM | O=C1Nc2ccc(Oc3c(Cl)cc(-n4ncc(=O)[nH]c4=O)cc3Cl)cc2C12CCC2 [Compound 5, 2-(3,5-dichloro-4-((2′-oxospiro[cyclobutane-1,3′-indolin]-5′-yl)oxy)phenyl)-1,2,4-triazine-3,5(2H,4H)-dione]
< 50 nM | Cc1c(Oc2c(Cl)cc(-c3nn(C)c(=O)[nH]c3=O)cc2Cl)ccc2c1C1(CC1)C(=O)N2 [Compound 37, 6-(3,5-dichloro-4-((4′-methyl-2′-oxospiro[cyclopropane-1,3′-indolin]-5′-yl)oxy)phenyl)-2-methyl-1,2,4-triazine-3,5(2H,4H)-dione]
< 50 nM | O=C(Nc1cc(Cl)c(Oc2ccc3c(c2Cl)C2(CC2)C(=O)N3)c(Cl)c1)c1noc(=O)[nH]1 [Compound 29, N-(3,5-dichloro-4-((4′-chloro-2′-oxospiro[cyclopropane-1,3′-indolin]-5′-yl)oxy)phenyl)-5-oxo-4,5-dihydro-1,2,4-oxadiazole-3-carboxamide]
< 50 nM | Cc1cc(OCC(=O)O)c(C)c(C)c1Cc1ccc2c(c1)C1(CC1)C(=O)N2 [Compound 20, 2-(2,3,5-trimethyl-4-((2′-oxospiro[cyclopropane-1,3′-indolin]-5′-yl)methyl)phenoxy)acetic acid]

More lines, now with the values behind:

SMILES | EC50
Cc1c(Oc2c(Cl)cc(NC(=O)c3noc(=O)[nH]3)cc2Cl)ccc2c1C1(CC1)C(=O)N2 [Compound 23, N-(3,5-dichloro-4-((4′-methyl-2′-oxospiro[cyclopropane-1,3′-indolin]-5′-yl)oxy)phenyl)-5-oxo-4,5-dihydro-1,2,4-oxadiazole-3-carboxamide] | < 50 nM
Cc1cc(-n2nc(C#N)c(=O)[nH]c2=O)cc(C)c1Cc1ccc2c(c1)C1(CC(F)(F)C1)C(=O)N2 [Compound 7, 2-(4-((3,3-difluoro-2′-oxospiro[cyclobutane-1,3′-indolin]-5′-yl)methyl)-3,5-dimethylphenyl)-3,5-dioxo-2,3,4,5-tetrahydro-1,2,4-triazine-6-carbonitrile] | > 25000 nM
Cc1cc(Oc2c(Cl)cc(-n3nc(N)c(=O)[nH]c3=O)cc2Cl)cc2c1NC(=O)C21CCC1 [Compound 27, 6-amino-2-(3,5-dichloro-4-((7′-methyl-2′-oxospiro[cyclobutane-1,3′-indolin]-5′-yl)oxy)phenyl)-1,2,4-triazine-3,5(2H,4H)-dione] | < 50 nM
N#Cc1nn(-c2cc(Cl)c(Oc3ccc4c(c3)C3(CC(F)(F)C3)C(=O)N4)c(Cl)c2)c(=O)[nH]c1=O [Compound 9, 2-(3,5-dichloro-4-((3,3-difluoro-2′-oxospiro[cyclobutane-1,3′-indolin]-5′-yl)oxy)phenyl)-3,5-dioxo-2,3,4,5-tetrahydro-1,2,4-triazine-6-carbonitrile] | < 50 nM
Nc1nn(-c2cc(Cl)c(Oc3ccc4c(c3)C3(CCC3)C(=O)N4)c(Cl)c2)c(=O)[nH]c1=O [Compound 6, 6-amino-2-(3,5-dichloro-4-((2′-oxospiro[cyclobutane-1,3′-indolin]-5′-yl)oxy)phenyl)-1,2,4-triazine-3,5(2H,4H)-dione] | < 50 nM
Cn1nc(-c2cc(Cl)c(Oc3ccc4c(c3F)C3(CC3)C(=O)N4)c(Cl)c2)c(=O)[nH]c1=O [Compound 42, 6-(3,5-dichloro-4-((4′-fluoro-2′-oxospiro[cyclopropane-1,3′-indolin]-5′-yl)oxy)phenyl)-2-methyl-1,2,4-triazine-3,5(2H,4H)-dione] | < 50 nM
Cc1cc(-n2nc(N)c(=O)[nH]c2=O)cc(C)c1Cc1ccc2c(c1)C1(CCC1)C(=O)N2 [Compound 4, 6-amino-2-(3,5-dimethyl-4-{2′-oxo-1′H-spiro[cyclobutane-1,3′-indol]-5′-ylmethyl}phenyl)-4H-1,2,4-triazine-3,5-dione] | < 50 nM
CC1CC12C(=O)Nc1ccc(Oc3c(Cl)cc(NC(=O)C(=O)O)cc3Cl)cc12 (single isomer, unassigned) [Compound 34, 2-((3,5-dichloro-4-((2-methyl-2′-oxospiro[cyclopropane-1,3′-indolin]-5′-yl)oxy)phenyl)amino)-2-oxoacetic acid] | < 50 nM
Nc1nn(-c2cc(Cl)c(Oc3ccc4c(c3F)C3(CC3)C(=O)N4)c(Cl)c2)c(=O)[nH]c1=O [Compound 41, 6-amino-2-(3,5-dichloro-4-((4′-fluoro-2′-oxospiro[cyclopropane-1,3′-indolin]-5′-yl)oxy)phenyl)-1,2,4-triazine-3,5(2H,4H)-dione] | < 50 nM
Nc1nn(-c2cc(Cl)c(Oc3ccc4c(c3F)C3(CCC3)C(=O)N4)c(Cl)c2)c(=O)[nH]c1=O [Compound 17, 6-amino-2-(3,5-dichloro-4-((4′-fluoro-2′-oxospiro[cyclobutane-1,3′-indolin]-5′-yl)oxy)phenyl)-1,2,4-triazine-3,5(2H,4H)-dione] | < 50 nM
CC1CC12C(=O)Nc1ccc(Oc3c(Cl)cc(-n4nc(N)c(=O)[nH]c4=O)cc3Cl)cc12 (centres unmarked) [Compound 33, 6-amino-2-(3,5-dichloro-4-((2-methyl-2′-oxospiro[cyclopropane-1,3′-indolin]-5′-yl)oxy)phenyl)-1,2,4-triazine-3,5(2H,4H)-dione] | < 50 nM
CC1CC12C(=O)Nc1ccc(Oc3c(Cl)cc(-n4nc(N)c(=O)[nH]c4=O)cc3Cl)cc12 (single isomer, unassigned) [Compound 32, 6-amino-2-(3,5-dichloro-4-((2-methyl-2′-oxospiro[cyclopropane-1,3′-indolin]-5′-yl)oxy)phenyl)-1,2,4-triazine-3,5(2H,4H)-dione] | < 50 nM
Cn1nc(-c2cc(Cl)c(Oc3ccc4c(c3Cl)C3(CC3)C(=O)N4)c(Cl)c2)c(=O)[nH]c1=O [Compound 43, 6-(3,5-dichloro-4-((4′-chloro-2′-oxospiro[cyclopropane-1,3′-indolin]-5′-yl)oxy)phenyl)-2-methyl-1,2,4-triazine-3,5(2H,4H)-dione] | < 50 nM
Cn1nc(-c2cc(Cl)c(Oc3ccc4c(c3)C3(CCC3)C(=O)N4)c(Cl)c2)c(=O)[nH]c1=O [Compound 16, 6-(3,5-dichloro-4-((2′-oxospiro[cyclobutane-1,3′-indolin]-5′-yl)oxy)phenyl)-2-methyl-1,2,4-triazine-3,5(2H,4H)-dione] | < 50 nM
Nc1nn(-c2cc(Cl)c(Oc3ccc4c(c3Cl)C3(CC3)C(=O)N4)c(Cl)c2)c(=O)[nH]c1=O [Compound 30, 6-amino-2-(3,5-dichloro-4-((4′-chloro-2′-oxospiro[cyclopropane-1,3′-indolin]-5′-yl)oxy)phenyl)-1,2,4-triazine-3,5(2H,4H)-dione] | < 50 nM
Cc1cc(NC(=O)c2noc(=O)[nH]2)cc(C)c1Oc1ccc2c(c1)C1(CC1)C(=O)N2 [Compound 39, N-(3,5-dimethyl-4-((2′-oxospiro[cyclopropane-1,3′-indolin]-5′-yl)oxy)phenyl)-5-oxo-4,5-dihydro-1,2,4-oxadiazole-3-carboxamide] | < 50 nM
Nc1nn(-c2cc(Cl)c(Oc3cc(F)c4c(c3)C3(CCC3)C(=O)N4)c(Cl)c2)c(=O)[nH]c1=O [Compound 21, 6-amino-2-(3,5-dichloro-4-((7′-fluoro-2′-oxospiro[cyclobutane-1,3′-indolin]-5′-yl)oxy)phenyl)-1,2,4-triazine-3,5(2H,4H)-dione] | < 50 nM
Cc1c(Oc2c(Cl)cc(-n3nc(N)c(=O)[nH]c3=O)cc2Cl)ccc2c1C1(CC1)C(=O)N2 [Compound 38, 6-amino-2-(3,5-dichloro-4-((4′-methyl-2′-oxospiro[cyclopropane-1,3′-indolin]-5′-yl)oxy)phenyl)-1,2,4-triazine-3,5(2H,4H)-dione] | < 50 nM
